Legend:
thymidine kinase 1 (TK1) = target: T1, thymidine kinase 1 (TK1) (Homo sapiens, UniProt P04183); assay: Luciferase-coupled TK assay; type: biochemical; settings: GST-hTK1 protein (5 μg), 10 min preincubation
T1 construct: made in house; host or cells: E. coli JM109 (pGEX-3X-hTK1)
Procedure: FIG. 12. Identification of a novel hTMPK inhibitor. (A) A screen of TMPK inhibitor by luciferase-coupled assay. (B) The chemical structures of YMU1 (compound 21) and related molecules. (C) Effect of YMU1 and derivative compounds on hTMPK inhibition using purified hTMPK protein (0.5 μg) with 10 min preincubation prior to reaction using luciferase-coupled TMPK analysis. (D) Effect of YMU1 on activity of purified TMPK (0.5 μg) and GST-hTK1 protein (5 μg) with 10 min preincubation prior to reaction. Data represent mean±s.d. (n=4) (E) Molecular models of the TMPK-YMU1 complex. Left panel: TMPK/ATP/Mg+2; right panel: TMPK/YMU1. The TMPK is represented in surface electrostatic potential (upper) and structural ribbon (lower). ATP and YMU1 are shown in green and blue stick, respectively, with colored atom (O, red; S, yellow; P, orange). […]
The TK reaction was started by adding purified hTMPK in 50 μl of TK assay buffer (50 mM Tris-HCl, pH 7.5, 1 mM CHAPS, 3 mg/ml BSA, 2.5 mM MgCl2, 50 μM ATP and 100 μM thymidine) in 96 wells plate at 25° C. for 10 min and terminated by adding 200 μl of thymidine (1.25 mM), followed by transferring 10 μl of reaction solution to a white 96-wellplate containing 90 μl of luciferase assay buffer (50 mM Glycine, 0.5 mM EDTA and 5 mM EDTA, pH 7.0, 0.1 μg of luciferase, 50 μM luciferin and 0.1% BSA). The luminescence was measured with a luminescence counter (Packard).

dUTPase = target: T2, dUTPase (Homo sapiens, UniProt P33316); assay: dUTPase activity assay; type: biochemical; settings: 0.1 μg purified GST-dUTPase, 10 min incubation with YMU1
T2 construct: made in house; host or cells: E. coli JM109 (pGEX-2T-dUTPase (WT))
Procedure: FIG. 19. No effect of YMU1 on dUTPase activity. 0.1 μg of purified GST-dUTPase protein was incubated with the indicated concentration of YMU1 for 10 min prior to action using dUTPase activity analysis.
For detecting dUTPase activity, the EnzChek Pyrophosphate Assay kit (Invitrogen) was used for measuring the dUTPase activity following the manufacturer's instruction. […] Reaction mixtures were incubated at 37° C. for 3 minutes. Samples (15 μl each) were added to the reaction mixtures [715 μl dH2O, 50 μl 20× reaction buffer, 200 μl MESG substrate, 1 U purine nucleoside phosphorylase, 0.03 U inorganic pyrophosphatase] and incubated at 22° C. for 45 minutes. The absorbance at 360 nm was measured using an ELISA plate reader.

HCT-116 p53−/− cells = assay: Whole-cell dTTP extraction and quantification; type: cell-based, human
Procedure: FIG. 13. Effect of YMU1 on cellular dTTP level. HCT-116 p53−/− cells were transfected with or without TMPK siRNA for 2 days and treated with vehicle or YMU1. After 72 h, cells were harvested for Western blot analysis and dNTP level determination (mean±s.d., n=3; **, P<0.01 based on a two-tailed Student's t-test).
The investigators performed additional experiments to determine the effect of YMU1 treatment on cellular dTTP levels. YMU1 treatment in cells reduced dTTP pool about 30-40% after treatment with YMU1 for 3 days (FIG. 13). Transfection of these cells with siRNA to knock-down TMPK expression reduced the dTTP pool size in a similar magnitude.
10^6 cells were extracted with 1 ml of ice-cold 60% methanol at −20° C. overnight, followed by centrifugation for 30 min at 16,000×g. The supernatant was immersed at 100° C. in dry bath for 3 min and dried under vacuum. The dry residue was dissolved in 80 μl of nuclease free water and used for cellular dNTP measurement according to the method described by Ferraro et al. (Ferraro et al., 2010).

TMPK [1] = target: T3, TMPK (Homo sapiens, UniProt P23919); assay: Luciferase-coupled TMPK assay; type: biochemical; set-up: GST (N, cleaved yes); made in house; host or cells: E. coli JM109 (pGEX-2T-hTMPK); settings: purified hTMPK protein (0.5 μg), 10 min preincubation; read-out: IC50 against hTMPK
T3 sequence (P23919 1-212): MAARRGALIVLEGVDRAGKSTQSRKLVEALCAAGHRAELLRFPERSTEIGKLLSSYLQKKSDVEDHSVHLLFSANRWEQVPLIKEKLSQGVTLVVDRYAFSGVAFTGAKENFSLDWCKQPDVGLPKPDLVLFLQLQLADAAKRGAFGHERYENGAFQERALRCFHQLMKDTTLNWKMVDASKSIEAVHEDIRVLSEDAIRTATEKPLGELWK
Procedure: FIG. 12. Identification of a novel hTMPK inhibitor. (A) A screen of TMPK inhibitor by luciferase-coupled assay. (B) The chemical structures of YMU1 (compound 21) and related molecules. (C) Effect of YMU1 and derivative compounds on hTMPK inhibition using purified hTMPK protein (0.5 μg) with 10 min preincubation prior to reaction using luciferase-coupled TMPK analysis. (D) Effect of YMU1 on activity of purified TMPK (0.5 μg) and GST-hTK1 protein (5 μg) with 10 min preincubation prior to reaction. Data represent mean±s.d. (n=4) (E) Molecular models of the TMPK-YMU1 complex. Left panel: TMPK/ATP/Mg+2; right panel: TMPK/YMU1. The TMPK is represented in surface electrostatic potential (upper) and structural ribbon (lower). ATP and YMU1 are shown in green and blue stick, respectively, with colored atom (O, red; S, yellow; P, orange). TMP is shown in white backbone and Mg+2 in purple. Arrow indicates the position of Asp15.
Based on the functional requirement of TMPK in DNA repair specifically in tumor cells with elevated level of R2 expression, we searched for inhibitors of hTMPK that might be useful in selectively sensitizing tumor cells to doxorubicin. […] The synthetic procedure and structural elucidation of YMU1 (compound 21) are described in the Methods of the Invention section of the application.
The TMPK reaction was started by adding purified hTMPK in 50 μl of TMPK assay buffer (100 mM Tris-HCl, pH 7.5, 100 mM KCl, 10 mM MgCl2, 50 μM ATP and 100 μM dTMP) in 96 wells plate at 25° C. for 10 min and terminated by adding 200 μl of DTNB (100 μM), followed by transferring 10 μl of reaction solution to a white 96-wellplate containing 90 μl of luciferase assay buffer (50 mM Glycine, 0.5 mM EDTA and 5 mM EDTA, pH 7.0, 0.1 μg of luciferase, 50 μM luciferin and 0.1% BSA). The luminescence was measured with a luminescence counter (Packard).

TMPK [2] = target: T3, TMPK; assay: In vitro TMPK inhibitory activity of TMPK inhibitor derivatives (inhibition yield); type: biochemical; set-up: GST (N, cleaved yes); made in house; host or cells: E. coli JM109 (pGEX-2T-hTMPK), inferred; settings: 2 μM; n=3 or 6; read-out: inhibition yield, normalized to compound 21 (YMU1) = 100%
Description: Chemical structures of the different TMPK inhibitor derivatives tested for in vitro TMPK inhibitory activity and in vivo doxorubicin sensitization activity (in MDA-MB231 cells) are depicted below.

T1 sequence (P04183 whole entry): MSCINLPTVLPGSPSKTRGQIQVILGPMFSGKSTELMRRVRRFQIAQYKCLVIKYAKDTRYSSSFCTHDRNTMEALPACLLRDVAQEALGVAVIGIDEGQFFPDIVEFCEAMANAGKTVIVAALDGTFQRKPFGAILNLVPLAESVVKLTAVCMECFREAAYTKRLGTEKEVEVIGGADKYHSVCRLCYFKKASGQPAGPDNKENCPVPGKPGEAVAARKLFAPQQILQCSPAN
T2 sequence (P33316 1-164 isoform P33316-2): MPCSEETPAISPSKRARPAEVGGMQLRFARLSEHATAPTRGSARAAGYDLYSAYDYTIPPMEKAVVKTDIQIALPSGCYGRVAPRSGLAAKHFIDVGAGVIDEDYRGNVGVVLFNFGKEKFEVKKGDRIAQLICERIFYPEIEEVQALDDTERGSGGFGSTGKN

## CCOC(=O)N1CCN(C(=O)Cn2sc3nc(C)cc(C)c3c2=O)CC1 [compound 21, Ethyl 4-(2-(4,6-dimethyl-3-oxoisothiazolo[5,4-b]pyridin-2(3H)-yl)acetyl) piperazine-1-carboxylate]
Thymidine kinase 1 (TK1)
  inhibitory effect on activity of purified thymidine kinase 1 (TK1): without inhibitory effect
dUTPase
  inhibition of dUTPase: unable to inhibit dUTPase
HCT-116 p53−/− cells; cells transfected with TMPK siRNA, then YMU1
  further reduction of dTTP pool in TMPK knockdown cells: did not cause a further reduction
HCT-116 p53−/− cells; treatment with YMU1 for 3 days
  reduction of dTTP pool: 30-40%
TMPK [1]
  IC50: 610 ± 20 nM
TMPK [2]
  inhibition at 2 µM: 100%
